Assay results reported in PubChem BioAssay AID256 (DTP/NCI, 2004).
Several values for one entry are separate records, joined by “and”; a condition that tells them apart may be missing. Equal values may be shown once. Toxic doses and inconclusive results are not listed.

System: CD2F1 mice, L1210 leukemia ip, survival T/C
Experiment: NCI In Vivo Anticancer Drug Screen. Data for tumor model L1210 Leukemia (intraperitoneal) in CD2F1 (CDF1) mice
Settings: higher = longer survival
Summary of the method: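 Each value reflects a quotient of treated over vehicle control outcomes in mice with a transplanted tumor.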

[1] = endpoint: mean survival time, dose: 100.0 mg/kg/injection, schedule: Q04DX003 (ip), vehicle: saline with Tween-80
[2] = endpoint: mean survival time, dose: 200.0 mg/kg/injection, schedule: Q04DX003 (ip), vehicle: saline with Tween-80
[3] = endpoint: mean survival time, dose: 100.0 mg/kg/injection, schedule: Q01DX009 (ip), vehicle: saline with Tween-80
[4] = endpoint: mean survival time, dose: 200.0 mg/kg/injection, schedule: Q01DX009 (ip), vehicle: saline with Tween-80
[5] = endpoint: mean survival time, dose: 400.0 mg/kg/injection, schedule: Q01DX009 (ip), vehicle: saline with Tween-80
[6] = endpoint: mean survival time, dose: 400.0 mg/kg/injection, schedule: Q04DX003 (ip), vehicle: saline with Tween-80
[7] = endpoint: mean survival time, dose: 6.25 mg/kg/injection, schedule: Q01DX009 (ip), vehicle: saline
[8] = endpoint: mean survival time, dose: 12.5 mg/kg/injection, schedule: Q01DX009 (ip), vehicle: saline
[9] = endpoint: mean survival time, dose: 25.0 mg/kg/injection, schedule: Q01DX009 (ip), vehicle: saline
[10] = endpoint: mean survival time, dose: 100.0 mg/kg/injection, schedule: Q01DX001 (ip), vehicle: saline with Tween-80
[11] = endpoint: mean survival time, dose: 200.0 mg/kg/injection, schedule: Q01DX001 (ip), vehicle: saline with Tween-80
[12] = endpoint: mean survival time, dose: 400.0 mg/kg/injection, schedule: Q01DX001 (ip), vehicle: saline with Tween-80
[13] = endpoint: mean survival time, dose: 100.0 mg/kg/injection, schedule: Q04DX002 (ip), vehicle: saline with Tween-80
[14] = endpoint: mean survival time, dose: 200.0 mg/kg/injection, schedule: Q04DX002 (ip), vehicle: saline with Tween-80
[15] = endpoint: mean survival time, dose: 400.0 mg/kg/injection, schedule: Q04DX002 (ip), vehicle: saline with Tween-80

In the case of `CCCC(C)C1(CC)NC(C)(C)CC(C)O1` (stereo not drawn), the T/C [1] was 103 % of control and the T/C [2] was 87 % of control.
With `Cc1cccc(/C=N\N=C\c2cccc(C)n2)n1` the T/C [3] was 96 % of control, the T/C [1] was 95 % of control and the T/C [4] was 90 % of control. The T/C [2] was 91 % of control, the T/C [5] was 98 % of control and the T/C [6] was 107 % of control.
With `FC(F)(F)c1cccc(C(OCCN2CCCC2)c2ccccc2)c1` (stereo not drawn) the T/C [7] was 105 % of control, the T/C [8] was 105 % of control and the T/C [9] was 109 % of control.
For `O=C(O)C1OC(C(=O)O)C(C(=O)O)C1C(=O)O` (stereo not drawn), the T/C (endpoint: mean survival time, dose: 75.0 mg/kg/injection, schedule: Q01DX001 (ip), vehicle: other) was 100 % of control, the T/C (endpoint: mean survival time, dose: 150.0 mg/kg/injection, schedule: Q01DX001 (ip), vehicle: other) was 100 % of control and the T/C (endpoint: mean survival time, dose: 300.0 mg/kg/injection, schedule: Q01DX001 (ip), vehicle: other) was 95 % of control.
With `C[CH2][Sn]([CH2]C)([O]S(=O)(=O)CC12CCC(CC1=O)C2(C)C)[O]S(=O)(=O)CC12CCC(CC1=O)C2(C)C` the T/C (endpoint: mean survival time, dose: 1.56 mg/kg/injection, schedule: Q01DX009 (ip), vehicle: saline) was 94 % of control, the T/C (endpoint: mean survival time, dose: 3.12 mg/kg/injection, schedule: Q01DX009 (ip), vehicle: saline) was 94 % of control and the T/C [7] was 103 % of control. The T/C [8] was 113 % of control and the T/C [9] was 111 % of control.
For `BrC1(Br)C2COCOCC21` (stereo not drawn), the T/C [10] was 94 % of control, the T/C [11] was 94 % of control and the T/C [12] was 94 % of control.
In the case of `CCOC(=O)c1cnc[nH]1`, the T/C [13] was 103 % of control, the T/C [14] was 95 % of control and the T/C [15] was 103 % of control.
In the case of `O=C(Oc1ccccc1/C=C/[n+]1ccccc1)c1ccccc1`, the T/C (endpoint: mean survival time, dose: 50.0 mg/kg/injection, schedule: Q01DX009 (ip), vehicle: saline with Tween-80) was 92 % of control, the T/C [3] was 100 % of control and the T/C [4] was 96 % of control.
`Clc1ccc(C(=C(c2ccc(Cl)cc2)c2ccc(Cl)cc2)c2ccc(Cl)cc2)cc1` was tested, and the T/C (endpoint: mean survival time, dose: 75.0 mg/kg/injection, schedule: Q01DX001 (ip), vehicle: saline) was 100 % of control, the T/C (endpoint: mean survival time, dose: 150.0 mg/kg/injection, schedule: Q01DX001 (ip), vehicle: saline) was 95 % of control and the T/C (endpoint: mean survival time, dose: 300.0 mg/kg/injection, schedule: Q01DX001 (ip), vehicle: saline) was 93 % of control.
`NC(=S)c1ncn(C2OC(COC=O)C(OC=O)C2OC=O)c1NC=O` (stereo not drawn) was tested, and the T/C (endpoint: mean survival time, dose: 50.0 mg/kg/injection, schedule: Q04DX002 (ip), vehicle: Klucel (hydroxypropylcellulose) (HPC)) was 121 % of control, the T/C (endpoint: mean survival time, dose: 100.0 mg/kg/injection, schedule: Q01DX009 (ip), vehicle: Klucel (hydroxypropylcellulose) (HPC)) was 151 % of control and the T/C [13] was 166 % of control. The T/C (endpoint: mean survival time, dose: 200.0 mg/kg/injection, schedule: Q01DX009 (ip), vehicle: Klucel (hydroxypropylcellulose) (HPC)) was 117 % of control, the T/C [14] was 158 % of control and the T/C (endpoint: mean survival time, dose: 400.0 mg/kg/injection, schedule: Q04DX002 (ip), vehicle: Klucel (hydroxypropylcellulose) (HPC)) was 159 % of control. For the same compound, the T/C [15] was 154 % of control, the T/C (endpoint: median survival time, dose: 12.5 mg/kg/injection, schedule: Q01DX009 (ip), vehicle: Klucel (hydroxypropylcellulose) (HPC)) was 111 % of control and the T/C (endpoint: median survival time, dose: 25.0 mg/kg/injection, schedule: Q01DX009 (ip), vehicle: Klucel (hydroxypropylcellulose) (HPC)) was 122 % of control. For the same compound, the T/C (endpoint: median survival time, dose: 200.0 mg/kg/injection, schedule: Q01DX009 (ip), vehicle: Klucel (hydroxypropylcellulose) (HPC)) was 154 % of control and 166 % of control.
`O=c1ccn(C2CC(O)C(COC(c3ccccc3)(c3ccccc3)c3ccccc3)O2)c(=O)[nH]1` (stereo not drawn) was tested, and the T/C (endpoint: median survival time, dose: 12.5 mg/kg/injection, schedule: Q01DX005 (ip), vehicle: saline with Tween-80) was 98 % of control and 97 % of control, the T/C (endpoint: median survival time, dose: 25.0 mg/kg/injection, schedule: Q01DX005 (ip), vehicle: saline with Tween-80) was 99 % of control and 92 % of control and the T/C (endpoint: median survival time, dose: 50.0 mg/kg/injection, schedule: Q01DX005 (ip), vehicle: saline with Tween-80) was 99 % of control and 96 % of control. For the same compound, the T/C (endpoint: median survival time, dose: 100.0 mg/kg/injection, schedule: Q01DX005 (ip), vehicle: saline with Tween-80) was 100 % of control and 96 % of control and the T/C (endpoint: median survival time, dose: 200.0 mg/kg/injection, schedule: Q01DX005 (ip), vehicle: saline with Tween-80) was 100 % of control and 98 % of control.
For `CC(C)(C)S/C(=N/N=O)NN=O`, the T/C [10] was 100 % of control, the T/C [11] was 102 % of control and the T/C [12] was 94 % of control.
With `CC1(C)C=CC=C(C(=O)O)C=C1` the T/C [3] was 100 % of control, the T/C [1] was 98 % of control and the T/C [4] was 92 % of control. The T/C [2] was 98 % of control, the T/C [5] was 89 % of control and the T/C [6] was 94 % of control.
For `CCOC(=O)c1c(-c2ccccc2)[nH]c(C)cc1=O`, the T/C [13] was 100 % of control, the T/C [14] was 100 % of control and the T/C [15] was 100 % of control.
